We go through 14 compounds from US20240279227A1, “FUSED HETEROCYCLIC DERIVATIVES” (Janssen Sciences Ireland Unlimited Company, priority 2021, published 2024).

Bounds are passed on as bounds.

A short description of series [1]: Human liver microsome stability. It is filed as in vitro ADME. The following applies: human, pooled human liver microsomes, pH 7.4, pooled human liver microsomes 0.5 mg/mL, 1 μM compound, NADPH 1 mM, pH 7.4, 37° C., 0-60 min; read-out: HLM Metabolism t1/2. The protocol:
Pooled human liver microsomes (0.5 mg/mL) was pre-incubated with 1 μM test compounds or control compounds (verapamil, warfarin and cerivastatin) in 0.1 M phosphate buffer pH 7.4 containing 1 mM MgCl2 at 37° C. The final concentration of DMSO and acetonitrile are 0.05% and 0.2%, respectively. All incubations are performed singularly for each compound. NADPH was added to initiate the reaction with the final concentration of 1 mM and the final incubation volume of 400 μL.
At 6 time points (0, 5, 10, 20, 40 and 60 min) reactions were stopped by the removal of 50 μL of the incubation mixture into plates containing acetonitrile at a of 1:3 (v:v). The plates were centrifuged at 3000 rpm for 10 min at 4° C. to precipitate the protein. Following protein precipitation, the sample supernatants were combined in cassettes of up to 8 compounds. The internal standard was added (1:1 supernatant to internal standard solution) and samples were analyzed using standard LC-MS conditions.
From a plot of ln peak area ratio (compound peak area/internal standard peak area) against time, the gradient of the line is determined. Subsequently, half-life is calculated using the equations below: […]
Background: Microsomes from liver hold many membrane-bound enzymes, among them those of drug oxidation.

Series [2] deals with HBV. The series is described as follows: Anti-HBV activity in HepG2.117 cell line (intracellular HBV DNA, real-time PCR). It counts as cell-based, hepatitis B virus. The following applies: HepG2.117 cells, HBV replication induced, 3 days of treatment, intracellular HBV DNA by real-time PCR. How it is done: The anti HBV activity was measured using the HepG2.117 cell line, a stable, inducibly HBV producing cell line, which replicates HBV in the absence of doxycycline (Tet-off system). The HepG2 cell line is available from ATCCR under number HB-8065. Transfection of the HepG2 cell line can be as described in Sun and Nassal 2006 Journal of Hepatology 45 (2006) 636-645 “Stable HepG2-and Huh7-based human hepatoma cell lines for efficient regulated expression of infectious hepatitis B virus”.
For the antiviral assay, HBV replication was induced, followed by a treatment with serially diluted compound in 96-well plates. After 3 days of treatment, the antiviral activity was determined by quantification of intracellular HBV DNA using real-time PCR and an HBV specific primer set and probe.

The nature of series [3]: Cytotoxicity, ATPlite Luminescence Assay. It counts as cell-based, human. As to conditions: human, HepG2 or HepG2.117 cells, 3-days incubation unless marked with *, ATPlite viability. The protocol:
Cytotoxicity of the compounds was tested using HepG2 or HepG2.117 cells, incubated for 3 or 4 days in the presence of compounds. The viability of the cells was assessed using the PERKIN ELMER ATPlite Luminescence Assay System.”
A general note: ATP-based viability assays read luminescence as a measure of living cells.

[4] abbreviates: Hepatitis B virus, HepG2.117, 72 h.

Take `CNC(=O)[C@@H]1CN(C(C)c2ccc(-n3cncn3)cn2)C(=O)c2c3c(nn21)C[C@@H](C)N(C(=O)c1ccc(Cl)c(Cl)c1)C3` (single isomer, unassigned) [Compound 40A, (3R,7S)-9-((R*)-1-(5-(1H-1,2,4-Triazol-1-yl)pyridin-2-yl)ethyl)-2-(3,4-dichlorobenzoyl)-N,3-dimethyl-10-oxo-1,2,3,4,7,8,9,10-octahydropyrido[4′,3′:3,4]pyrazolo [1,5-a]pyrazine-7-carboxamide]: the half-life at 1 μM in series [1] was over 3 h. Also, the EC50 in series [2] stood at 0.28 µM. The compound also returned a CC50 in series [3] of over 50 µM.

As for `CNC(=O)[C@@H]1CN(C(C)c2ccc(-n3ncnc3C)cn2)C(=O)c2c3c(nn21)C[C@@H](C)N(C(=O)c1ccc(Cl)c(Cl)c1)C3` (single isomer, unassigned) [Compound 41A, (3R,7S)-2-(3,4-Dichlorobenzoyl)-N,3-dimethyl-9-((R*)-1-(5-(5-methyl-1H-1,2,4-triazol-1-yl)pyridin-2-yl)ethyl)-10-oxo-1,2,3,4,7,8,9,10-octahydropyrido[4′,3′:3,4] pyrazolo[1,5-a]pyrazine-7-carboxamide], the half-life at 1 μM in series [1] is over 3 h. In series [2], this compound registered an EC50 of 2.21 µM. Also, the CC50 in series [3] was over 50 µM.

On to `CNC(=O)[C@@H]1CN(C(C)c2cc(F)ccn2)C(=O)c2c3c(nn21)C[C@@H](C)N(C(=O)c1ccc(Cl)c(Cl)c1)C3` (single isomer, unassigned) [Compound 42A, (3R,7S)-2-(3,4-Dichlorobenzoyl)-9-((R*)-1-(4-fluoropyridin-2-yl)ethyl)-N,3-dimethyl-10-oxo-1,2,3,4,7,8,9,10-octahydropyrido[4′,3′:3,4]pyrazolo[1,5-a]pyrazine-7-carboxamide], for which the half-life at 1 μM in series [1] was over 3 h. For the same compound, the EC50 in series [2] is 0.28 µM. For the same compound, the CC50 in series [3] is over 50 µM.

In the case of `CNC(=O)[C@@H]1CN(C(C)c2cnc(C(F)(F)F)nc2)C(=O)c2c3c(nn21)C[C@@H](C)N(C(=O)c1ccc(Cl)c(C(F)(F)F)c1)C3` (single isomer, unassigned) [Compound 43A, (3R,7S)-2-(4-Chloro-3-(trifluoromethyl)benzoyl)-N,3-dimethyl-10-oxo-9-((R*)-1-(2-(trifluoromethyl)pyrimidin-5-yl)ethyl)-1,2,3,4,7,8,9,10-octahydropyrido[4′,3′:3,4]pyrazolo[1,5-a]pyrazine-7-carboxamide], the half-life at 1 μM in series [1] is over 3 h. Moreover, the response in series [2] was half-maximal at 0.61 µM (EC50). In series [3], this compound displayed a CC50 of over 50 µM.

For the compound `CNC(=O)[C@@H]1CN(C(C)c2nc(C(F)(F)F)cs2)C(=O)c2c3c(nn21)C[C@@H](C)N(C(=O)c1ccc(Cl)c(Cl)c1)C3` (single isomer, unassigned) [Compound 44A, (3R,7S)-2-(3,4-Dichlorobenzoyl)-N,3-dimethyl-10-oxo-9-((R*)-1-(4-(trifluoromethyl)thiazol-2-yl)ethyl)-1,2,3,4,7,8,9,10-octahydropyrido[4′,3′:3,4]pyrazolo[1,5-a]pyrazine-7-carboxamide], in series [1], the half-life at 1 μM was over 3 h. A half-maximal effect in series [2] (setting [4]) (EC50) was put at 0.12 µM. The same compound showed a CC50 in series [3] of over 50 µM.

As for `CNC(=O)[C@@H]1CN([C@H](C)c2cnc(C(F)(F)F)nc2)C(=O)c2c3c(nn21)C[C@@H](C)N(C(=O)c1ccc(Cl)c(Cl)c1)C3` [Compound 4A, (3R,7S)-2-(3,4-Dichlorobenzoyl)-N,3-dimethyl-10-oxo-9-((R)-1-(2-(trifluoromethyl)pyrimidin-5-yl)ethyl)-1,2,3,4,7,8,9,10-octahydropyrido[4′,3′:3,4]pyrazolo[1,5-a]pyrazine-7-carboxamide], the half-life at 1 μM in series [1] was over 3 h. In addition, the EC50 in series [2] (setting [4]) worked out at 2.44 µM. Further, the CC50 in series [3] is over 50 µM.

Regarding `CNC(=O)[C@@H]1CN([C@@H](C)c2cnc(C(F)(F)F)nc2)C(=O)c2c3c(nn21)C[C@@H](C)N(C(=O)c1ccc(Cl)c(Cl)c1)C3` [Compound 4B, (3R,7S)-2-(3,4-dichlorobenzoyl)-N,3-dimethyl-10-oxo-9-((S)-1-(2-(trifluoromethyl)pyrimidin-5-yl)ethyl)-1,2,3,4,7,8,9,10-octahydropyrido[4′,3′:3,4]pyrazolo[1,5-a]pyrazine-7-carboxamide], the half-life at 1 μM in series [1] is over 3 h. For the same compound, the response in series [2] (setting [4]) was half-maximal at 0.16 µM (EC50). Besides, the 50% cytotoxic concentration (CC50) in series [3] was over 50 µM.

Take `CNC(=O)[C@@H]1CN([C@@H](C)c2cnc(C(F)(F)F)cn2)C(=O)c2c3c(nn21)C[C@@H](C)N(C(=O)c1ccc(Cl)c(Cl)c1)C3` [Compound 6B, (3R,7S)-2-(3,4-Dichlorobenzoyl)-N,3-dimethyl-10-oxo-9-((S)-1-(5-(trifluoromethyl)pyrazin-2-yl)ethyl)-1,2,3,4,7,8,9,10-octahydropyrido[4′,3′:3,4]pyrazolo[1,5-a]pyrazine-7-carboxamide]: the half-life at 1 μM in series [1] is over 3 h. Also, the EC50 in series [2] (setting [4]) is 0.092 µM. For the same compound, in series [3], the 50% cytotoxic concentration (CC50) is over 50 µM.

For the compound `CNC(=O)[C@@H]1CN([C@H](C)c2ccc(C(F)(F)F)nc2)C(=O)c2c3c(nn21)C[C@@H](C)N(C(=O)c1ccc(Cl)c(Cl)c1)C3` [Compound 13A, (3R,7S)-2-(3,4-Dichlorobenzoyl)-N,3-dimethyl-10-oxo-9-((R)-1-(6-(trifluoromethyl)pyridin-3-yl)ethyl)-1,2,3,4,7,8,9,10-octahydropyrido[4′,3′:3,4]pyrazolo[1,5-a]pyrazine-7-carboxamide], the half-life at 1 μM in series [1] is over 3 h. In series [2] (setting [4]), this compound displayed an EC50 of 0.34 µM. In addition, the CC50 in series [3] was over 50 µM.

With `CNC(=O)[C@@H]1CN([C@@H](C)c2ccc(C(F)(F)F)nc2)C(=O)c2c3c(nn21)C[C@@H](C)N(C(=O)c1ccc(Cl)c(Cl)c1)C3` [Compound 13B, (3R,7S)-2-(3,4-dichlorobenzoyl)-N,3-dimethyl-10-oxo-9-((S)-1-(6-(trifluoromethyl)pyridin-3-yl)ethyl)-1,2,3,4,7,8,9,10-octahydropyrido[4′,3′:3,4]pyrazolo[1,5-a]pyrazine-7-carboxamide], the half-life at 1 μM in series [1] is over 3 h. Moreover, the EC50 in series [2] (setting [4]) was found to be 0.033 µM. This compound also returned a CC50 in series [3] of 46.8 µM.

As to `CNC(=O)[C@@H]1CN([C@H](C)c2ccc(C(F)(F)F)nc2)C(=O)c2c3c(nn21)C[C@@H](C)N(C(=O)c1ccc(Cl)c(C(F)(F)F)c1)C3` [Compound 15A, (3R,7S)-2-(4-Chloro-3-(trifluoromethyl)benzoyl)-N,3-dimethyl-10-oxo-9-((R)-1-(6-(trifluoromethyl)pyridin-3-yl)ethyl)-1,2,3,4,7,8,9,10-octahydropyrido[4′,3′:3,4]pyrazolo[1,5-a]pyrazine-7-carboxamide], in series [1], the half-life at 1 μM is over 3 h. Besides, the EC50 in series [2] (setting [4]) is 0.086 µM. For the same compound, in series [3], the CC50 is over 50 µM.

As to `CNC(=O)[C@@H]1CN([C@@H](C)c2ccc(C(F)(F)F)nc2)C(=O)c2c3c(nn21)C[C@@H](C)N(C(=O)c1ccc(Cl)c(C(F)(F)F)c1)C3` [Compound 15B, (3R,7S)-2-(4-chloro-3-(trifluoromethyl)benzoyl)-N,3-dimethyl-10-oxo-9-((S)-1-(6-(trifluoromethyl)pyridin-3-yl)ethyl)-1,2,3,4,7,8,9,10-octahydropyrido[4′,3′:3,4]pyrazolo[1,5-a]pyrazine-7-carboxamide], the half-life at 1 μM in series [1] was over 3 h. In series [2] (setting [4]), this compound displayed an EC50 of 0.029 µM. Half-maximal cytotoxicity in series [3] (CC50) was put at 29.8 µM.

For the compound `CNC(=O)[C@@H]1CN([C@H](C)c2ccc(OC(F)F)cc2)C(=O)c2c3c(nn21)C[C@@H](C)N(C(=O)c1ccc(Cl)c(Cl)c1)C3` [Compound 16A, (3R,7S)-2-(3,4-dichlorobenzoyl)-9-((R)-1-(4-(difluoromethoxy)phenyl)ethyl)-N,3-dimethyl-10-oxo-1,2,3,4,7,8,9,10-octahydropyrido[4′,3′:3,4]pyrazolo[1,5-a]pyrazine-7-carboxamide], the half-life at 1 μM in series [1] is over 3 h. For the same compound, in series [2] (setting [4]), the EC50 turned out to be 0.021 µM. For the same compound, in series [3], the CC50 came to 40.4 µM.

As to `CNC(=O)[C@@H]1CN([C@@H](C)c2ccc(OC(F)F)cc2)C(=O)c2c3c(nn21)C[C@@H](C)N(C(=O)c1ccc(Cl)c(Cl)c1)C3` [Compound 16B, (3R,7S)-2-(3,4-dichlorobenzoyl)-9-((S)-1-(4-(difluoromethoxy)phenyl)ethyl)-N,3-dimethyl-10-oxo-1,2,3,4,7,8,9,10-octahydropyrido[4′,3′:3,4]pyrazolo[1,5-a]pyrazine-7-carboxamide], the half-life at 1 μM in series [1] is over 3 h. Further, the EC50 in series [2] (setting [4]) worked out at 0.02 µM. Also, half-maximal cytotoxicity in series [3] (CC50) was put at 16.9 µM.

A word on the EC50: it is the concentration needed to bring the measured effect to its halfway point. The term CC50 denotes the concentration that lowers cell viability or growth by half. High values mean lower toxicity to the cells, low ones greater toxicity to the cells.
